Assays:
[1] = system: Puccinia recondita f. Sp. Tritici; test: Fungicidal activity against Puccinia recondita f. sp. tritici / wheat / leaf disc preventative (brown rust); type: in vivo; conditions: foliar, 200 ppm in the applied formulation, wheat leaf segments, preventative, compared to untreated control leaf disks, read-out: disease control
Procedure, shortened: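 Compound application precedes infection: segments of wheat cv. Kanzler, sprayed at 200 ppm, are inoculated with a spore suspension after 1 day. Incubation is at 19° C. with 75% relative humidity and 12 h light/12 h darkness, and control versus untreated leaves is rated 7 to 9 days post-application.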

[2] = system: Glomerella lagenarium (Colletotrichum lagenarium); test: Fungicidal activity against Glomerella lagenarium (Colletotrichum lagenarium) liquid culture / cucumber / preventative (anthracnose); type: cell-based; conditions: Colletotrichum orbiculare; 20 ppm in the applied formulation; liquid culture (PDB), growth inhibition measured photometrically after 3 to 4 days; compared to untreated control; read-out: disease control
Procedure, shortened: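 Photometric read-out of fungal growth after 2–7 days, expressed as percent antifungal activity versus untreated check. Cryo-stored conidia in PDB; compound at 20 ppm; dark, 24 °C, 96% RH.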

Phakopsora Pachyrhizi = test: Fungicidal activity against Phakopsora pachyrhizi / soybean / leaf disc preventative (Asian soybean rust); type: in vivo; conditions: foliar, 200 ppm in the applied formulation, soybean leaf disks, compared to untreated control leaf disks, read-out: disease control
Procedure, shortened: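 Preventative soybean leaf-disc test: discs on water agar sprayed with diluted formulated compound, inoculated one day later with spores on the lower surface. Held 24–36 h dark at 20°C, 75% rh, then 12 h light/day; percent disease control versus untreated discs scored 12–14 days after application.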

[3] = system: Puccinia recondita f. Sp. Tritici; test: Fungicidal activity against Puccinia recondita f. sp. tritici / wheat / leaf disc curative (brown rust); type: in vivo; conditions: foliar, 24 h, 200 ppm in the applied formulation, wheat leaf segments, curative (applied 1 day after inoculation), compared to untreated control leaf disks, read-out: disease control
Procedure, shortened: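 Curative test on wheat leaf segments (cv. Kanzler) on agar, inoculated with spore suspension and held dark at 19° C, 75% RH; formulated compound in water applied 1 day after inoculation. Incubated at 19° C, 75% RH, 12 h light/12 h dark; percent disease control versus untreated scored 6 to 8 days after application.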

CCCN(Cc1ccc(-c2noc(C(F)(F)F)n2)cc1)C(=O)CCCOC [Compound 1.662, 4-methoxy-N-propyl-N-[[4-[5-(trifluoromethyl)-1,2,4-oxadiazol-3-yl]phenyl]methyl]-butanamide]
≥ 80%: pest or weed control at 200 ppm [1] | inhibition of growth at 20 ppm [2] | pest or weed control at 200 ppm (Phakopsora Pachyrhizi) | pest or weed control at 200 ppm [3]

CCCN(Cc1ccc(-c2noc(C(F)(F)F)n2)cc1)C(=O)C1CCCO1 (centres unmarked) [Compound 1.663, N-propyl-N-[[4-[5-(trifluoromethyl)-1,2,4-oxadiazol-3-yl]pheny1]methyl]-tetrahydrofuran-2-carboxamide]
≥ 80%: pest or weed control at 200 ppm [1] | inhibition of growth at 20 ppm [2] | pest or weed control at 200 ppm (Phakopsora Pachyrhizi) | pest or weed control at 200 ppm [3]

CCCN(Cc1ccc(-c2noc(C(F)(F)F)n2)cc1)C(=O)CC#N [Compound 1.664, 2-cyano-N-propyl-N-[[4-[5-(trifluoromethyl)-1,2,4-oxadiazol-3-yl]phenyl]methyl]-acetamide]
≥ 80%: pest or weed control at 200 ppm [1] | inhibition of growth at 20 ppm [2] | pest or weed control at 200 ppm (Phakopsora Pachyrhizi) | pest or weed control at 200 ppm [3]

CCCN(Cc1ccc(-c2noc(C(F)(F)F)n2)cc1)C(=O)C1(C#N)CC1 [Compound 1.665, 1-cyano-N-propyl-N-[[4-[5-(trifluoromethyl)-1,2,4-oxadiazol-3-yl]phenyl]methyl]-cyclopropane-carboxamide]
≥ 80%: pest or weed control at 200 ppm [1] | inhibition of growth at 20 ppm [2] | pest or weed control at 200 ppm (Phakopsora Pachyrhizi) | pest or weed control at 200 ppm [3]

CCCN(Cc1ccc(-c2noc(C(F)(F)F)n2)cc1)C(=O)C(C)OC (centres unmarked) [Compound 1.666, 2-methoxy-N-propyl-N-[[4-[5-(trifluoromethyl)-1,2,4-oxadiazol-3-yl]phenyl]methyl]-propanamide]
≥ 80%: pest or weed control at 200 ppm [1] | inhibition of growth at 20 ppm [2] | pest or weed control at 200 ppm (Phakopsora Pachyrhizi) | pest or weed control at 200 ppm [3]

CCCN(Cc1ccc(-c2noc(C(F)(F)F)n2)cc1)C(C)=O [Compound 1.668, N-propyl-N-[[4-[5-(trifluoromethyl)-1,2,4-oxadiazol-3-yl]phenyl]methyl]-acetamide]
≥ 80%: pest or weed control at 200 ppm [1] | inhibition of growth at 20 ppm [2] | pest or weed control at 200 ppm (Phakopsora Pachyrhizi) | pest or weed control at 200 ppm [3]

CCCN(Cc1ccc(-c2noc(C(F)(F)F)n2)cc1)C(=O)CC1CC1 [Compound 1.669, 2-cyclopropyl-N-propyl-N-[[4-[5-(trifluoromethyl)-1,2,4-oxadiazol-3-yl]phenyl]methyl]-acetamide]
≥ 80%: pest or weed control at 200 ppm [1] | inhibition of growth at 20 ppm [2] | pest or weed control at 200 ppm (Phakopsora Pachyrhizi) | pest or weed control at 200 ppm [3]

CC(C)C(=O)N(Cc1ccc(-c2noc(C(F)(F)F)n2)cc1)C(C)C [Compound 1.670, N-isopropyl-2-methyl-N-[[4-[5-(trifluoromethyl)-1,2,4-oxadiazol-3-yl]phenyl]methyl]-propanamide]
≥ 80%: pest or weed control at 200 ppm [1] | inhibition of growth at 20 ppm [2] | pest or weed control at 200 ppm (Phakopsora Pachyrhizi) | pest or weed control at 200 ppm [3]

CC(C)N(Cc1ccc(-c2noc(C(F)(F)F)n2)cc1)C(=O)C1CC1(F)F (centres unmarked) [Compound 1.671, 2,2-difluoro-N-isopropyl-N-[[4-[5-(trifluoromethyl)-1,2,4-oxadiazol-3-yl]phenyl]methyl]-cyclopropane-carboxamide]
≥ 80%: pest or weed control at 200 ppm [1] | inhibition of growth at 20 ppm [2] | pest or weed control at 200 ppm (Phakopsora Pachyrhizi) | pest or weed control at 200 ppm [3]

CC(C)N(Cc1ccc(-c2noc(C(F)(F)F)n2)cc1)C(=O)C1CCOC1 (centres unmarked) [Compound 1.673, N-isopropyl-N-[[4-[5-(trifluoromethyl)-1,2,4-oxadiazol-3-yl]phenyl]methyl]-tetrahydrofuran-3-carboxamide]
≥ 80%: pest or weed control at 200 ppm [1] | inhibition of growth at 20 ppm [2] | pest or weed control at 200 ppm (Phakopsora Pachyrhizi) | pest or weed control at 200 ppm [3]

COCCC(=O)N(Cc1ccc(-c2noc(C(F)(F)F)n2)cc1)C(C)C [Compound 1.674, N-isopropyl-3-methoxy-N-[[4-[5-(trifluoromethyl)-1,2,4-oxadiazol-3-yl]phenyl]methyl]-propanamide]
≥ 80%: pest or weed control at 200 ppm [1] | inhibition of growth at 20 ppm [2] | pest or weed control at 200 ppm (Phakopsora Pachyrhizi) | pest or weed control at 200 ppm [3]

CC(C)N(Cc1ccc(-c2noc(C(F)(F)F)n2)cc1)C(=O)C1CCC1 [Compound 1.675, N-isopropyl-N-[[4-[5-(trifluoromethyl)-1,2,4-oxadiazol-3-yl]phenyl]methyl]-cyclobutane-carboxamide]
≥ 80%: pest or weed control at 200 ppm [1] | inhibition of growth at 20 ppm [2] | pest or weed control at 200 ppm (Phakopsora Pachyrhizi) | pest or weed control at 200 ppm [3]

CC1CC1C(=O)N(Cc1ccc(-c2noc(C(F)(F)F)n2)cc1)C(C)C (centres unmarked) [Compound 1.676, N-isopropyl-2-methyl-N-[[4-[5-(trifluoromethyl)-1,2,4-oxadiazol-3-yl]phenyl]methyl]-cyclopropane-carboxamide]
≥ 80%: pest or weed control at 200 ppm [1] | inhibition of growth at 20 ppm [2] | pest or weed control at 200 ppm (Phakopsora Pachyrhizi) | pest or weed control at 200 ppm [3]

CC(C)N(Cc1ccc(-c2noc(C(F)(F)F)n2)cc1)C(=O)C1(C)CC1 [Compound 1.677, N-isopropyl-1-methyl-N-[[4-[5-(trifluoromethyl)-1,2,4-oxadiazol-3-yl]phenyl]methyl]-cyclopropane-carboxamide]
≥ 80%: pest or weed control at 200 ppm [1] | inhibition of growth at 20 ppm [2] | pest or weed control at 200 ppm (Phakopsora Pachyrhizi) | pest or weed control at 200 ppm [3]

CCC(C)C(=O)N(Cc1ccc(-c2noc(C(F)(F)F)n2)cc1)C(C)C (centres unmarked) [Compound 1.678, N-isopropyl-2-methyl-N-[[4-[5-(trifluoromethyl)-1,2,4-oxadiazol-3-yl]phenyl]methyl]-butanamide]
≥ 80%: pest or weed control at 200 ppm [1] | inhibition of growth at 20 ppm [2] | pest or weed control at 200 ppm (Phakopsora Pachyrhizi) | pest or weed control at 200 ppm [3]

CC(C)N(Cc1ccc(-c2noc(C(F)(F)F)n2)cc1)C(=O)C1(C)COC1 [Compound 1.679, N-isopropyl-3-methyl-N-[[4-[5-(trifluoromethyl)-1,2,4-oxadiazol-3-yl]phenyl]methyl]-oxetane-3-carboxamide]
≥ 80%: pest or weed control at 200 ppm [1] | inhibition of growth at 20 ppm [2] | pest or weed control at 200 ppm (Phakopsora Pachyrhizi) | pest or weed control at 200 ppm [3]

CCC(COC)C(=O)N(Cc1ccc(-c2noc(C(F)(F)F)n2)cc1)C(C)C (centres unmarked) [Compound 1.680, N-isopropyl-2-(methoxymethyl)-N-[[4-[5-(trifluoromethyl)-1,2,4-oxadiazol-3-yl]phenyl]methyl]-butanamide]
≥ 80%: pest or weed control at 200 ppm [1] | inhibition of growth at 20 ppm [2] | pest or weed control at 200 ppm (Phakopsora Pachyrhizi) | pest or weed control at 200 ppm [3]

COCCCC(=O)N(Cc1ccc(-c2noc(C(F)(F)F)n2)cc1)C(C)C [Compound 1.681, N-isopropyl-4-methoxy-N-[[4-[5-(trifluoromethyl)-1,2,4-oxadiazol-3-yl]phenyl]methyl]-butanamide]
≥ 80%: pest or weed control at 200 ppm [1] | inhibition of growth at 20 ppm [2] | pest or weed control at 200 ppm (Phakopsora Pachyrhizi) | pest or weed control at 200 ppm [3]

CC(C)N(Cc1ccc(-c2noc(C(F)(F)F)n2)cc1)C(=O)C1CCCO1 (centres unmarked) [Compound 1.682, N-isopropyl-N-[[4-[5-(trifluoromethyl)-1,2,4-oxadiazol-3-yl]phenyl]methyl]-tetrahydrofuran-2-carboxamide]
≥ 80%: pest or weed control at 200 ppm [1] | inhibition of growth at 20 ppm [2] | pest or weed control at 200 ppm (Phakopsora Pachyrhizi) | pest or weed control at 200 ppm [3]

CC(C)N(Cc1ccc(-c2noc(C(F)(F)F)n2)cc1)C(=O)CC#N [Compound 1.683, 2-cyano-N-isopropyl-N-[[4-[5-(trifluoromethyl)-1,2,4-oxadiazol-3-yl]phenyl]methyl]-acetamide]
≥ 80%: pest or weed control at 200 ppm [1] | inhibition of growth at 20 ppm [2] | pest or weed control at 200 ppm (Phakopsora Pachyrhizi) | pest or weed control at 200 ppm [3]

CC(C)N(Cc1ccc(-c2noc(C(F)(F)F)n2)cc1)C(=O)C1(C#N)CC1 [Compound 1.684, 1 cyano-N-isopropyl-N-[[4-[5-(trifluoromethyl)-1,2,4-oxadiazol-3-yl]phenyl]methyl]-cyclopropane-carboxamide]
≥ 80%: pest or weed control at 200 ppm [1] | inhibition of growth at 20 ppm [2] | pest or weed control at 200 ppm (Phakopsora Pachyrhizi) | pest or weed control at 200 ppm [3]

COC(C)C(=O)N(Cc1ccc(-c2noc(C(F)(F)F)n2)cc1)C(C)C (centres unmarked) [Compound 1.685, N-isopropyl-2-methoxy-N-[[4-[5-(trifluoromethyl)-1,2,4-oxadiazol-3-yl]phenyl]methyl]-propanamide]
≥ 80%: pest or weed control at 200 ppm [1] | inhibition of growth at 20 ppm [2] | pest or weed control at 200 ppm (Phakopsora Pachyrhizi) | pest or weed control at 200 ppm [3]

CC(C)N(Cc1ccc(-c2noc(C(F)(F)F)n2)cc1)C(=O)CC(F)(F)F [Compound 1.686, 3,3,3-trifluoro-N-isopropyl-N-[[4-[5-(trifluoromethyl)-1,2,4-oxadiazol-3-yl]phenyl]methyl]-propanamide]
≥ 80%: pest or weed control at 200 ppm [1] | inhibition of growth at 20 ppm [2] | pest or weed control at 200 ppm (Phakopsora Pachyrhizi) | pest or weed control at 200 ppm [3]
